Drawing on paper PMC9834408, “The SPOC domain is a phosphoserine binding module that bridges transcription machinery with co- and post-transcriptional regulators” (Nature Communications, 2023), this text covers Kd for seven compounds.

“And” between values parts separate entries of the source, which are not always exact repeats. Equal entries are not always repeated. Where two headings read alike, the source gives them in different places. Where a SMILES comes first, the peptide text is derived from it. [ ]: non-standard residue; d: D form. The star is where a group is joined. 5FAM = O=C1OC2(c3ccc(O)cc3Oc3cc(O)ccc32)c2ccc(C(=O)*)cc21; pS = N[C@@H](COP(=O)(O)O)C(=O)O

For one assay, the target named is T1, PHF3 SPOC (Homo sapiens, UniProt Q92576).
T1 construct: His6-PHF3 SPOC was generated previously; His6 (N, cleaved yes); made in house; host or cells: E. coli Rosetta2 (DE3)
Kind of assay: Fluorescence anisotropy binding of labeled peptides to PHF3 SPOC WT. As for the experimental part: (§1) SPOC domains were expressed in E. coli Rosetta2 (DE3) cells (Novagen). ON cultures were diluted 1:50 in 2×TY, grown at 37 °C until OD600 = 0.8, and induced with 0.5 mM IPTG for 3 h at 30 °C. […] Elution with 25 mM Tris-Cl pH 7.4, 500 mM NaCl, and 500 mM Imidazole was followed by TEV cleavage of the His6-tag and size exclusion chromatography using Sephacryl S-200 HR 16/600 or 26/600 (Cytiva) equilibrated in 25 mM Tris-Cl pH 7.4, 25 mM NaCl, 1 mM DTT.
(§2) One molar equivalent of Atto-488 NHS ester (Atto-tec) and five equivalents of DIPEA (Sigma-Aldrich) was added to three equivalents of the peptide. Reactions were incubated ON at room temperature (RT) and protected from light. Labeled peptides were purified by reverse-phase HPLC over a C18 column (Agilent Technologies) using a gradient from 30 to 70% Methanol (Merck). Purified peptides were lyophilized and stored at −20 °C.
(§3) Fluorescence anisotropy measurements were performed on a Perkin Elmer LS50 B fluorescence spectrometer operated by Perkin Elmar FL WinLab software (version 3.00). The excitation wavelength was set to 500 nm (excitation slit 10 nm), the emission wavelength to 518 nm (emission slit 6 nm), and the integration time to 1 s. Measurements were conducted at 20 °C in 25 mM Tris-Cl pH 7.4, 25 mM NaCl, and 1 mM DTT. The grating factor was determined using unconjugated Atto-488 dye. […]

In the next assay the target is T2, PHF3 SPOC R1248A (Homo sapiens, UniProt Q92576, R1248A).
T2 construct: His6-PHF3 SPOC was generated previously; His6 (N, cleaved yes); made in house; host or cells: E. coli Rosetta2 (DE3)
T2 sequence (Q92576 1199-1356 R1248A limits assumed): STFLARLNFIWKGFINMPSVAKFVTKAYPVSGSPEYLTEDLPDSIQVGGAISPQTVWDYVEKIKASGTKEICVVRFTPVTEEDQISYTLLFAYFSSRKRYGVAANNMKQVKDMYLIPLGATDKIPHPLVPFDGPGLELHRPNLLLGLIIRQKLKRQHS
Put plainly: Fluorescence anisotropy binding of labeled peptides to PHF3 SPOC R1248A. To be noted: 90 nM labeled peptide, 25 mM Tris-Cl pH 7.4, 25 mM NaCl, 1 mM DTT, 20 °C, three independent experiments. The text has this: (§4) For mammalian expression, human DIDO3, SHARP, and RBM15 were amplified from HEK293T cDNA and cloned into CMV10 N3XFLAG (Sigma) by Gibson assembly (NEB). These constructs were used for cloning ΔSPOC truncations using Gibson assembly (NEB). CMV10 N3XFLAG-PHF3 and PHF3 ΔSPOC constructs were generated previously. NLS-SPOC constructs were cloned into CMV10 N3XFLAG (Sigma) between NotI and XbaI. NLS sequence ([…]) was introduced to ensure nuclear localization of the isolated SPOC domains. […] His6-PHF3 SPOC was generated previously. Arginine mutations were introduced by site-directed mutagenesis according to the FastCloning protocol. Repair templates for CRISPR/Cas9 knock-in were cloned by Gibson assembly. Primer sequences are listed in Supplementary Table 4.
(§5) SPOC domains were expressed in E. coli Rosetta2 (DE3) cells (Novagen). ON cultures were diluted 1:50 in 2×TY, grown at 37 °C until OD600 = 0.8, and induced with 0.5 mM IPTG for 3 h at 30 °C. […]
(§6) Fluorescence anisotropy measurements were performed on a Perkin Elmer LS50 B fluorescence spectrometer operated by Perkin Elmar FL WinLab software (version 3.00). […] The grating factor was determined using unconjugated Atto-488 dye. […]
A general note: Fluorescence polarisation rises when a labelled molecule tumbles more slowly, as on binding a larger partner.

A further assay addresses T3, DIDO SPOC (Homo sapiens, UniProt Q9BTC0).
T3 construct: human DIDO3 SPOC (1047–1205 aa); His6 (N, cleaved yes); made in house; host or cells: E. coli Rosetta2 (DE3)
Kind of assay: Fluorescence anisotropy binding of labeled peptides to DIDO SPOC WT. As to conditions: 90 nM labeled peptide, 25 mM Tris-Cl pH 7.4, 25 mM NaCl, 1 mM DTT, 20 °C, three independent experiments.
Source text: as §4, §5, §6

A further assay addresses T4, DIDO SPOC R1096A (Homo sapiens, UniProt Q9BTC0, R1096A).
T4 construct: human DIDO3 SPOC (1047–1205 aa); His6 (N, cleaved yes); made in house; host or cells: E. coli Rosetta2 (DE3)
T4 sequence (Q9BTC0 1047-1205 R1096A): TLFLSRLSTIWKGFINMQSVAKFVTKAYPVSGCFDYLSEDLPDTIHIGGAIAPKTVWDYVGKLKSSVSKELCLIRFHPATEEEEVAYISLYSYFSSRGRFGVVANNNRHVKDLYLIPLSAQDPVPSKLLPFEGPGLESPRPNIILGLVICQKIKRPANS
Put plainly: Fluorescence anisotropy binding of labeled peptides to DIDO SPOC R1096A. As to conditions: 90 nM labeled peptide, 25 mM Tris-Cl pH 7.4, 25 mM NaCl, 1 mM DTT, 20 °C, three independent experiments.
Source text: as §4, §5, §6

Another assay addresses T5, SHARP SPOC (Homo sapiens, UniProt Q96T58).
T5 construct: SHARP SPOC (3496–3664 aa); His6 (N, cleaved yes); made in house; host or cells: E. coli Rosetta2 (DE3)
Kind of assay: Fluorescence anisotropy binding of labeled peptides to SHARP SPOC WT. As to conditions: 90 nM labeled peptide, 25 mM Tris-Cl pH 7.4, 25 mM NaCl, 1 mM DTT, 20 °C, three independent experiments.

The next assay deals with T6, RBM15 SPOC (Homo sapiens, UniProt Q96T37).
T6 construct: RBM15 SPOC (775–960 aa); His6 (N, cleaved yes); made in house; host or cells: E. coli Rosetta2 (DE3)
Kind of assay: Fluorescence anisotropy binding of labeled peptides to RBM15 SPOC WT. To be noted: 90 nM labeled peptide, 25 mM Tris-Cl pH 7.4, 25 mM NaCl, 1 mM DTT, 20 °C, three independent experiments.
Source text: as §4, §1, §2, §3

The target of the next assay is T7, SHARP SPOC R3552A (Homo sapiens, UniProt Q96T58, R3552A).
T7 construct: SHARP SPOC (3496–3664 aa); His6 (N, cleaved yes); made in house; host or cells: E. coli Rosetta2 (DE3)
T7 sequence (Q96T58 3496-3664 R3552A): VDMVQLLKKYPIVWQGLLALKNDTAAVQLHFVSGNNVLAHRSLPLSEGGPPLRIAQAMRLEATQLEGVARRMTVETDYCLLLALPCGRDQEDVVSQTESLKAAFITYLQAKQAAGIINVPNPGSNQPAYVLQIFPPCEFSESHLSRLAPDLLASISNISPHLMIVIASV
Put plainly: Fluorescence anisotropy binding of labeled peptides to SHARP SPOC R3552A. As to conditions: 90 nM labeled peptide, 25 mM Tris-Cl pH 7.4, 25 mM NaCl, 1 mM DTT, 20 °C, three independent experiments.
Source text: as §4, §5, §6

T6 sequence (Q96T37 775-960): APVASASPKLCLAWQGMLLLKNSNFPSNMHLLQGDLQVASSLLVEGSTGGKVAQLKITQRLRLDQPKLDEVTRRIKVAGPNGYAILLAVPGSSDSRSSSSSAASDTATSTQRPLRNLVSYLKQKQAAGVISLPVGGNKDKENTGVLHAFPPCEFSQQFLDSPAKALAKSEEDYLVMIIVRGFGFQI
T1 sequence (Q92576 1199-1356 limits assumed): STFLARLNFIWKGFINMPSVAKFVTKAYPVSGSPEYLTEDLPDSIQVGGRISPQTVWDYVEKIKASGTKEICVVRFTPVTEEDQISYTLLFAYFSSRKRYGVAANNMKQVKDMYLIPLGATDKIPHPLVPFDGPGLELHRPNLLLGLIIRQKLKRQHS
T5 sequence (Q96T58 3496-3664): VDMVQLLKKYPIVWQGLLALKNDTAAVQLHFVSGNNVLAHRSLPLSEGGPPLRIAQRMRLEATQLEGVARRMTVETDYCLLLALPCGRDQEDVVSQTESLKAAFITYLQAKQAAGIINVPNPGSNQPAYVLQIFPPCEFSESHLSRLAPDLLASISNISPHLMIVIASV
T3 sequence (Q9BTC0 1047-1205): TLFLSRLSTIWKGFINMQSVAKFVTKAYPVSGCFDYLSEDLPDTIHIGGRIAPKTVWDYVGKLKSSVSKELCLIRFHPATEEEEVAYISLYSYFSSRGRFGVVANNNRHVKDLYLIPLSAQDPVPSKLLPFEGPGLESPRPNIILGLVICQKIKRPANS

Consider `C[C@@H](O)[C@H](NC(=O)[C@@H]1CCCN1C(=O)[C@H](CO)NC(=O)[C@H](Cc1ccc(O)cc1)NC(=O)[C@H](CO)NC(=O)[C@@H]1CCCN1C(=O)[C@H](CO)NC(=O)[C@@H](NC(=O)[C@@H]1CCCN1C(=O)[C@H](COP(=O)(O)O)NC(=O)[C@H](Cc1ccc(O)cc1)NC(=O)[C@H](CO)NC(=O)[C@@H]1CCCN1)[C@@H](C)O)C(=O)N[C@@H](CO)C(=O)N1CCC[C@H]1C(=O)N[C@@H](CO)C(=O)O` [1xS2P], for which, on PHF3 SPOC, the Kd (commonly the free concentration of one partner at which half of the binding sites on the other are occupied at equilibrium, for simple one-to-one binding) was determined as 103 ± 4 µM. `C[C@@H](O)[C@H](NC(=O)[C@@H]1CCCN1C(=O)[C@H](COP(=O)(O)O)NC(=O)[C@H](Cc1ccc(O)cc1)NC(=O)[C@H](CO)NC(=O)[C@@H]1CCCN1C(=O)[C@H](CO)NC(=O)[C@@H](NC(=O)[C@@H]1CCCN1C(=O)[C@H](COP(=O)(O)O)NC(=O)[C@H](Cc1ccc(O)cc1)NC(=O)[C@H](CO)NC(=O)[C@@H]1CCCN1)[C@@H](C)O)C(=O)N[C@@H](CO)C(=O)N1CCC[C@H]1C(=O)N[C@@H](CO)C(=O)O` [2xS2P]: the Kd was 0.42 ± 0.02 µM at PHF3 SPOC (PHF3 SPOC WT, fluorescence anisotropy, 90 nM labeled peptide titrated with SPOC domain, 25 mM Tris-Cl pH 7.4, 25 mM NaCl, 1 mM DTT, 20 °C, three independent experiments, read-out: Kd); 8.4 ± 0.3 µM on PHF3 SPOC R1248A; 4.8 ± 0.6 µM at DIDO SPOC; 22.4 ± 2.1 µM at DIDO SPOC R1096A. `C[C@@H](O)[C@H](NC(=O)[C@@H]1CCCN1C(=O)[C@H](CO)NC(=O)[C@H](Cc1ccc(O)cc1)NC(=O)[C@H](CO)NC(=O)[C@@H]1CCCN1C(=O)[C@H](COP(=O)(O)O)NC(=O)[C@@H](NC(=O)[C@@H]1CCCN1C(=O)[C@H](CO)NC(=O)[C@H](Cc1ccc(O)cc1)NC(=O)[C@H](CO)NC(=O)[C@@H]1CCCN1)[C@@H](C)O)C(=O)N[C@@H](COP(=O)(O)O)C(=O)N1CCC[C@H]1C(=O)N[C@@H](CO)C(=O)O` [2xS5P]: the Kd on SHARP SPOC was 20.6 ± 0.1 µM; on RBM15 SPOC (read-out: Kd), 11.8 µM and 29.6 µM. With `C[C@@H](O)[C@H](NC(=O)[C@@H]1CCCN1C(=O)[C@H](CO)NC(=O)[C@H](Cc1ccc(O)cc1)NC(=O)[C@H](COP(=O)(O)O)NC(=O)[C@@H]1CCCN1C(=O)[C@H](CO)NC(=O)[C@@H](NC(=O)[C@@H]1CCCN1C(=O)[C@H](CO)NC(=O)[C@H](Cc1ccc(O)cc1)NC(=O)[C@H](CO)NC(=O)[C@@H]1CCCN1)[C@@H](C)O)C(=O)N[C@@H](CO)C(=O)N1CCC[C@H]1C(=O)N[C@@H](COP(=O)(O)O)C(=O)O` [2xS7P], on RBM15 SPOC (Kd), the dissociation constant Kd was 23.5 ± 0.4 µM. At SHARP SPOC R3552A, `CC(C)C[C@H](NC(=O)[C@H](CC(C)C)NC(=O)[C@@H]1CCCN1C(=O)[C@H](C)NC(=O)[C@@H]1CCCN1C(=O)[C@H](CCC(=O)O)NC(=O)[C@H](CCCNC(=N)N)NC(=O)c1ccc2c(c1)C(=O)OC21c2ccc(O)cc2Oc2cc(O)ccc21)C(=O)N[C@@H](CO)C(=O)N[C@@H](C)C(=O)N[C@@H](CCC(N)=O)C(=O)N[C@@H](Cc1ccc(O)cc1)C(=O)N[C@@H](CCC(=O)O)C(=O)N[C@H](C(=O)N[C@@H](CC(C)C)C(=O)N[C@@H](COP(=O)(O)O)C(=O)N[C@@H](CC(=O)O)C(=O)N[C@@H](CO)C(=O)N[C@@H](CC(=O)O)C(=O)N[C@@H](CC(=O)O)C(=O)O)[C@@H](C)O` [NCoR pS2436] (5FAM-REPAPLLSAQYETL[pS]DSDD-OH) gave an equilibrium dissociation constant (Kd) of 23.3 ± 0.5 µM. Same read-out and setting: the result for `CC(C)C[C@H](NC(=O)[C@H](CC(C)C)NC(=O)[C@@H]1CCCN1C(=O)[C@H](C)NC(=O)[C@@H]1CCCN1C(=O)[C@H](CCC(=O)O)NC(=O)[C@H](CCCNC(=N)N)NC(=O)c1ccc2c(c1)C(=O)OC21c2ccc(O)cc2Oc2cc(O)ccc21)C(=O)N[C@@H](CO)C(=O)N[C@@H](C)C(=O)N[C@@H](CCC(N)=O)C(=O)N[C@@H](Cc1ccc(O)cc1)C(=O)N[C@@H](CCC(=O)O)C(=O)N[C@H](C(=O)N[C@@H](CC(C)C)C(=O)N[C@@H](CO)C(=O)N[C@@H](CC(=O)O)C(=O)N[C@@H](CO)C(=O)N[C@@H](CC(=O)O)C(=O)N[C@@H](CC(=O)O)C(=O)O)[C@@H](C)O` [NCoR] (5FAM-REPAPLLSAQYETLSDSDD-OH) reads 262 ± 74.2 µM. For the compound `CSCC[C@H](NC(=O)c1ccc2c(c1)C(=O)OC21c2ccc(O)cc2Oc2cc(O)ccc21)C(=O)N[C@H](C(=O)N[C@@H](CC(N)=O)C(=O)N[C@@H](CCC(=O)O)C(=O)N[C@@H](CCC(=O)O)C(=O)N1CCC[C@H]1C(=O)N[C@@H](CC(C)C)C(=O)N1CCC[C@H]1C(=O)N[C@@H](CCCCN)C(=O)N[C@@H](CCCCN)C(=O)N[C@H](C(=O)N[C@@H](CCCNC(=N)N)C(=O)N[C@@H](CC(C)C)C(=O)N[C@@H](COP(=O)(O)O)C(=O)N[C@@H](CCC(=O)O)C(=O)N[C@H](C(=O)N[C@@H](CC(=O)O)C(=O)N[C@@H](Cc1ccccc1)C(=O)N[C@@H](CCCCN)C(=O)O)[C@@H](C)O)C(C)C)[C@@H](C)O` [WTAP pS14] (5FAM-MTNEEPLPKKVRL[pS]ETDFK-OH), at RBM15 SPOC (read-out: Kd), the dissociation constant (Kd) is 21.5 ± 1.5 µM.
